Results reported in the supplement of paper PMC13380429.

What was measured:
Settings in all cases: 72 h
[1] = system: U2OS; assay: cell viability relative to DMSO; higher = less toxic
[2] = system: HepG2; assay: as above
[3] = system: Calu-3; assay: as above
[4] = system: Vero E6; assay: as above
[5] = system: Caco-2; assay: as above
[6] = system: U2OS; assay: drug sensitivity score (DSS) for viability; higher = more toxic; extreme values may be limits of the assay
[7] = system: HepG2; assay: as above
[8] = system: Calu-3; assay: as above
[9] = system: Vero E6; assay: as above
[10] = system: Caco-2; assay: as above
[11] = system: U2OS; assay: relative viability EC50 (midpoint between 100% and the lowest measured viability); higher = less toxic
[12] = system: HepG2; assay: as above
[13] = system: Calu-3; assay: as above
[14] = system: Vero E6; assay: as above
[15] = system: Caco-2; assay: as above

Row | Compound | cell viability ([1]; 1 nM) | cell viability ([1]; 10 nM) | cell viability ([1]; 100 nM) | cell viability ([1]; 1000 nM) | cell viability ([1]; 10000 nM) | cell viability ([2]; 1 nM) | cell viability ([2]; 10 nM) | cell viability ([2]; 100 nM) | cell viability ([2]; 1000 nM) | cell viability ([2]; 10000 nM) | cell viability ([3]; 1 nM) | cell viability ([3]; 10 nM) | cell viability ([3]; 100 nM) | cell viability ([3]; 1000 nM) | cell viability ([3]; 10000 nM) | cell viability ([4]; 1 nM) | cell viability ([4]; 10 nM) | cell viability ([4]; 100 nM) | cell viability ([4]; 1000 nM) | cell viability ([4]; 10000 nM) | cell viability ([5]; 1 nM) | cell viability ([5]; 10 nM) | cell viability ([5]; 100 nM) | cell viability ([5]; 1000 nM) | cell viability ([5]; 10000 nM) | drug sensitivity score [6] | drug sensitivity score [7] | drug sensitivity score [8] | drug sensitivity score [9] | drug sensitivity score [10] | relative viability EC50 [11] | relative viability EC50 [12] | relative viability EC50 [13] | relative viability EC50 [14] | relative viability EC50 [15]
1 | C[C@H](Cn1cnc2c(N)ncnc21)OCP(=O)(O)O [tenofovir] | 101% | 98.6% | 102% | 99.8% | 103% | 93.9% | 94.6% | 105% | 107% | 115% | 98.4% | 101% | 94.7% | 93.3% | 93.8% | 94.4% | 94.4% | 97.2% | 94.5% | 107% | 97.8% | 89.2% | 96.9% | 99.6% | 107% | 0 | 0 | 0 | 0 | 0 | > 10 µM | > 10 µM | > 10 µM | > 10 µM | > 10 µM
2 | Cc1cc(OI)c(C(C)C)cc1-c1cc(C(C)C)c(OI)cc1C [thymol-iodide] | 101% | 103% | 103% | 98.2% | 99.6% | 99.5% | 105% | 92.8% | 99.1% | 93.7% | 91.2% | 97% | 102% | 101% | 105% | 104% | 102% | 99.7% | 99.5% | 97.7% | 104% | 102% | 103% | 97.7% | 87.9% | 0 | 0 | 0 | 0 | 0.2 | > 10 µM | > 10 µM | > 10 µM | > 10 µM | > 10 µM
3 | CC(=O)c1ccc2c(c1)[C@H](NC(=O)c1ccc(F)c(Cl)c1)[C@H](O)C(C)(C)O2 [tonabersat] | 100% | 105% | 92.1% | 101% | 101% | 95% | 95.3% | 126% | 97.9% | 90.2% | 95.4% | 100% | 99% | 106% | 111% | 109% | 110% | 103% | 100% | 98.6% | 88.2% | 123% | 81.3% | 107% | 86.6% | 0 | 0 | 0 | 0 | 0 | > 10 µM | > 10 µM | > 10 µM | > 10 µM | > 10 µM
4 | C(#CCN1CCCC1)CN1CCCC1 [tremorine] | 94.9% | 101% | 91.5% | 95.3% | 92.7% | 88.5% | 103% | 100% | 97.8% | 93.6% | 109% | 104% | 96.3% | 88.3% | 103% | 103% | 108% | 98.5% | 104% | 92% | 91.8% | 108% | 87.3% | 97.7% | 83.1% | 0 | 0 | 0 | 0 | 0.3 | > 10 µM | > 10 µM | > 10 µM | > 10 µM | > 10 µM
5 | COc1cc(Cc2cnc(N)nc2N)cc(OC)c1OC [trimethoprim] | 92.3% | 98.4% | 96% | 99.6% | 105% | 82.4% | 102% | 106% | 89.8% | 97.6% | 103% | 89.6% | 107% | 110% | 113% | 99.8% | 91.4% | 100% | 94.4% | 96.4% | 114% | 113% | 119% | 103% | 90.1% | 0 | 0 | 0 | 0 | 0 | > 10 µM | > 10 µM | > 10 µM | > 10 µM | > 10 µM
6 | CNCc1cc(-c2ccccc2F)n(S(=O)(=O)c2cccnc2)c1 [vonoprazan] | 95.4% | 100% | 98.1% | 102% | 94.4% | 101% | 93.6% | 100% | 94.3% | 107% | 99.8% | 96.7% | 94.9% | 96.6% | 105% | 103% | 99.4% | 97.9% | 99.7% | 98.9% | 97.5% | 100% | 102% | 100% | 96.4% | 0 | 0 | 0 | 0 | 0 | > 10 µM | > 10 µM | > 10 µM | > 10 µM | > 10 µM
7 | COc1cc(-c2ccc(=O)[nH]n2)ccc1OC(F)F [zardaverine] | 97.8% | 95.8% | 103% | 98% | 99.2% | 93.8% | 110% | 95.7% | 106% | 99.7% | 108% | 95.9% | 89.5% | 92.4% | 89.4% | 95.5% | 101% | 94.5% | 93% | 92.6% | 87.1% | 90% | 96.9% | 96.3% | 104% | 0 | 0 | 0.3 | 0 | 0 | > 10 µM | > 10 µM | > 10 µM | > 10 µM | > 10 µM
